Experimental data taken from the supplement of paper PMC10627819.

Columns and labels:
S. aureus DSM 20231 [1] = assay: fitness (endpoint OD595 vs no drug) (fraction); higher = more growth
How it was run: (§1)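 Fitness expresses the optical density reached at the stationary-phase transition as a fraction of the robust mean of no-drug control wells. It is capped at 1. Measurements were OD595 every 30 min for 14 h at 37 °C after inoculation of 384-well plates at OD595 0.01 (30 µl, or 55 µl for S. pneumoniae), minus the first reading.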

S. aureus Newman [2] = assay: as above
How it was run: as §1

S. pneumoniae D39V = assay: Bliss interaction score (quartile over a dose matrix) (fitness difference); higher = more antagonism (negative = synergy)
How it was run: (§2)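 The Bliss score is observed fitness minus expected fitness, where the expected value is the product of single-drug fitness values inferred from combination data. Fitness is OD595 at entry into stationary phase normalised to the plate's robust no-drug mean and capped at 1. Scores are reported as quartiles spanning technical, biological and donor/recipient replicates.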

B. subtilis 168 = assay: as above
How it was run: as §2

S. aureus Newman [3] = assay: as above
How it was run: as §2

S. aureus DSM 20231 [4] = assay: as above
How it was run: as §2

[5] = first compound 0.75 µg/mL, partner 0.625 µg/mL
[6] = first compound 0.75 µg/mL, partner 1.25 µg/mL
[7] = first compound 0.75 µg/mL, partner 2.5 µg/mL
[8] = first compound 1.5 µg/mL, partner 0.625 µg/mL
[9] = first compound 1.5 µg/mL, partner 1.25 µg/mL
[10] = first compound 1.5 µg/mL, partner 2.5 µg/mL
[11] = first compound 3 µg/mL, partner 0.625 µg/mL
[12] = first compound 3 µg/mL, partner 1.25 µg/mL
[13] = first compound 0.75 µg/mL, partner 12.5 µg/mL
[14] = first compound 0.75 µg/mL, partner 25 µg/mL
[15] = first compound 0.75 µg/mL, partner 50 µg/mL
[16] = first compound 1.5 µg/mL, partner 12.5 µg/mL
[17] = first compound 1.5 µg/mL, partner 50 µg/mL
[18] = first compound 3 µg/mL, partner 12.5 µg/mL
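For Bliss interaction score (quartile over a dose matrix) in this document: first quartile when negative (synergy) and third quartile when positive (antagonism).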
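For fitness (endpoint OD595 vs no drug) in this document: OD595 on entry to stationary phase over no-drug wells; at most 1.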

## O=C(N[C@H](CO)[C@H](O)c1ccc([N+](=O)[O-])cc1)C(Cl)Cl [Chloramphenicol] + COc1cccc2c1C(=O)c1c(O)c3c(c(O)c1C2=O)C[C@@](O)(C(=O)CO)C[C@@H]3O[C@H]1C[C@H](N)[C@H](O)[C@H](C)O1 [Doxorubicin]
S. aureus DSM 20231 [1]; [5]
  fitness: 0.646
S. aureus DSM 20231 [1]; [6]
  fitness: 0.698
S. aureus DSM 20231 [1]; [7]
  fitness: 0.663
S. aureus DSM 20231 [1]; [8]
  fitness: 0.572
S. aureus DSM 20231 [1]; [9]
  fitness: 0.569
S. aureus DSM 20231 [1]; [10]
  fitness: 0.525
S. aureus DSM 20231 [1]; [11]
  fitness: 0.118
S. aureus DSM 20231 [1]; [12]
  fitness: 0.121
S. aureus Newman [2]; [5]
  fitness: 0.676
S. aureus Newman [2]; [6]
  fitness: 0.72
S. aureus Newman [2]; [7]
  fitness: 0.685
S. aureus Newman [2]; [8]
  fitness: 0.564
S. aureus Newman [2]; [9]
  fitness: 0.562
S. aureus Newman [2]; [10]
  fitness: 0.579
S. aureus Newman [2]; [11]
  fitness: 0.326
S. aureus Newman [2]; [12]
  fitness: 0.291
S. pneumoniae D39V
  Bliss interaction score: -0.127
B. subtilis 168
  Bliss interaction score: -0.0604
S. aureus Newman [3]
  Bliss interaction score: 0.132

## O=C(N[C@H](CO)[C@H](O)c1ccc([N+](=O)[O-])cc1)C(Cl)Cl [Chloramphenicol] + C[C@@H](O)[C@H]1C(=O)N2C(C(=O)O)=C(SCCNC=N)C[C@H]12 [Imipenem]
S. pneumoniae D39V
  Bliss interaction score: -0.0662
S. aureus DSM 20231 [4]
  Bliss interaction score: 0.0442
S. aureus Newman [3]
  Bliss interaction score: -0.0316

## O=C(N[C@H](CO)[C@H](O)c1ccc([N+](=O)[O-])cc1)C(Cl)Cl [Chloramphenicol] + C[C@H]1COc2c(N3CCN(C)CC3)c(F)cc3c(=O)c(C(=O)O)cn1c23 [Levofloxacin]
S. pneumoniae D39V
  Bliss interaction score: 0.0655
S. aureus DSM 20231 [4]
  Bliss interaction score: 0.0741
B. subtilis 168
  Bliss interaction score: 0.0387

## O=C(N[C@H](CO)[C@H](O)c1ccc([N+](=O)[O-])cc1)C(Cl)Cl [Chloramphenicol] + Cc1ncc([N+](=O)[O-])n1CCO [Metronidazole]
S. aureus DSM 20231 [1]; [5]
  fitness: 0.775
S. aureus DSM 20231 [1]; [6]
  fitness: 0.736
S. aureus DSM 20231 [1]; [7]
  fitness: 0.755
S. aureus Newman [2]; [5]
  fitness: 0.796
S. aureus Newman [2]; first compound 0.75 µg/mL, partner 0.781 µg/mL
  fitness: 0.789
S. aureus Newman [2]; [6]
  fitness: 0.819
S. aureus Newman [2]; first compound 0.75 µg/mL, partner 1.562 µg/mL
  fitness: 0.768
S. aureus Newman [2]; [7]
  fitness: 0.853
S. aureus Newman [2]; first compound 0.75 µg/mL, partner 3.124 µg/mL
  fitness: 0.752
S. aureus Newman [2]; [8]
  fitness: 0.555
S. aureus Newman [2]; first compound 1.5 µg/mL, partner 0.781 µg/mL
  fitness: 0.539
S. aureus Newman [2]; [9]
  fitness: 0.573
S. aureus Newman [2]; first compound 1.5 µg/mL, partner 1.562 µg/mL
  fitness: 0.527
S. aureus Newman [2]; [10]
  fitness: 0.564
S. aureus Newman [2]; first compound 1.5 µg/mL, partner 3.124 µg/mL
  fitness: 0.521
S. aureus Newman [2]; [11]
  fitness: 0.159
S. aureus Newman [2]; [12]
  fitness: 0.167
S. aureus Newman [2]; first compound 3 µg/mL, partner 1.562 µg/mL
  fitness: 0.172
S. aureus Newman [2]; first compound 3 µg/mL, partner 3.124 µg/mL
  fitness: 0.231
S. pneumoniae D39V
  Bliss interaction score: 0.0867
B. subtilis 168
  Bliss interaction score: 0.0423
S. aureus Newman [3]
  Bliss interaction score: -0.07

## O=C(N[C@H](CO)[C@H](O)c1ccc([N+](=O)[O-])cc1)C(Cl)Cl [Chloramphenicol] + O=C1CN(/N=C/c2ccc([N+](=O)[O-])o2)C(=O)N1 [Nitrofurantoin]
S. pneumoniae D39V
  Bliss interaction score: -0.157
S. aureus DSM 20231 [4]
  Bliss interaction score: -0.0404
S. aureus Newman [3]
  Bliss interaction score: -0.0842

## O=C(N[C@H](CO)[C@H](O)c1ccc([N+](=O)[O-])cc1)C(Cl)Cl [Chloramphenicol] + O=C(O[C@@H]1Cc2c(O)cc(O)cc2O[C@@H]1c1cc(O)c(O)c(O)c1)c1cc(O)c(O)c(O)c1 [EGCG]
S. aureus DSM 20231 [1]; [13]
  fitness: 0.653
S. aureus DSM 20231 [1]; [14]
  fitness: 0.646
S. aureus DSM 20231 [1]; [15]
  fitness: 0.669
S. aureus DSM 20231 [1]; [16]
  fitness: 0.56
S. aureus DSM 20231 [1]; first compound 1.5 µg/mL, partner 25 µg/mL
  fitness: 0.572
S. aureus DSM 20231 [1]; [17]
  fitness: 0.494
S. aureus DSM 20231 [1]; [18]
  fitness: 0.15
S. aureus DSM 20231 [1]; first compound 3 µg/mL, partner 25 µg/mL
  fitness: 0.136
S. aureus DSM 20231 [1]; first compound 3 µg/mL, partner 50 µg/mL
  fitness: 0.0905
S. aureus Newman [2]; [13]
  fitness: 0.649
S. aureus Newman [2]; [14]
  fitness: 0.699
S. aureus Newman [2]; [15]
  fitness: 0.699
S. aureus Newman [2]; [16]
  fitness: 0.602
S. aureus Newman [2]; [17]
  fitness: 0.509
S. aureus Newman [2]; [18]
  fitness: 0.189
S. pneumoniae D39V
  Bliss interaction score: -0.0762
S. aureus DSM 20231 [4]
  Bliss interaction score: 0.0831
B. subtilis 168
  Bliss interaction score: 0.103

## CC(=O)O[C@H]1C[C@@]2(C)[C@@H](C[C@@H](O)[C@H]3[C@@]4(C)CC[C@@H](O)[C@@H](C)[C@@H]4CC[C@@]32C)/C1=C(\CCC=C(C)C)C(=O)O [Fusidic acid] + CC(C)(O)c1ccccc1CC[C@@H](SCC1(CC(=O)O)CC1)c1cccc(/C=C/c2ccc3ccc(Cl)cc3n2)c1 [Montelukast]
S. aureus DSM 20231 [4]
  Bliss interaction score: -0.241

## CC(=O)O[C@H]1C[C@@]2(C)[C@@H](C[C@@H](O)[C@H]3[C@@]4(C)CC[C@@H](O)[C@@H](C)[C@@H]4CC[C@@]32C)/C1=C(\CCC=C(C)C)C(=O)O [Fusidic acid] + C[C@H]1C[C@@H]2[C@H]([C@@H](O)C[C@@]3(C)[C@H]2CC[C@]3(O)C(=O)CO)[C@@]2(C)C=CC(=O)C=C12 [Methylprednisolone]
S. aureus DSM 20231 [4]
  Bliss interaction score: -0.127

## CC(=O)O[C@H]1C[C@@]2(C)[C@@H](C[C@@H](O)[C@H]3[C@@]4(C)CC[C@@H](O)[C@@H](C)[C@@H]4CC[C@@]32C)/C1=C(\CCC=C(C)C)C(=O)O [Fusidic acid] + Cc1c(Cl)cccc1Nc1ccccc1C(=O)O [Tolfenamic]
S. aureus DSM 20231 [4]
  Bliss interaction score: 0.16

## CCC[C@@H]1C[C@@H](C(=O)N[C@@H]([C@H]2O[C@H](SC)[C@H](O)[C@@H](O)[C@H]2O)[C@@H](C)O)N(C)C1 [Lincomycin] + CC(C)(O)c1ccccc1CC[C@@H](SCC1(CC(=O)O)CC1)c1cccc(/C=C/c2ccc3ccc(Cl)cc3n2)c1 [Montelukast]
S. aureus DSM 20231 [4]
  Bliss interaction score: -0.268

## CCC[C@@H]1C[C@@H](C(=O)N[C@@H]([C@H]2O[C@H](SC)[C@H](O)[C@@H](O)[C@H]2O)[C@@H](C)O)N(C)C1 [Lincomycin] + CCCSc1nc(N[C@@H]2C[C@H]2c2ccc(F)c(F)c2)c2nnn([C@@H]3C[C@H](OCCO)[C@@H](O)[C@H]3O)c2n1 [Ticagrelor]
S. aureus DSM 20231 [4]
  Bliss interaction score: -0.385

## CCC[C@@H]1C[C@@H](C(=O)N[C@@H]([C@H]2O[C@H](SC)[C@H](O)[C@@H](O)[C@H]2O)[C@@H](C)O)N(C)C1 [Lincomycin] + C[C@H]1C[C@@H]2[C@H]([C@@H](O)C[C@@]3(C)[C@H]2CC[C@]3(O)C(=O)CO)[C@@]2(C)C=CC(=O)C=C12 [Methylprednisolone]
S. aureus DSM 20231 [4]
  Bliss interaction score: -0.248

## CCC[C@@H]1C[C@@H](C(=O)N[C@@H]([C@H]2O[C@H](SC)[C@H](O)[C@@H](O)[C@H]2O)[C@@H](C)O)N(C)C1 [Lincomycin] + Cc1c(C)c2c(c(C)c1O)CCC(C)(COc1ccc(CC3SC(=O)NC3=O)cc1)O2 [Troglitazone]
S. aureus DSM 20231 [4]
  Bliss interaction score: 0.222

## CCC[C@@H]1C[C@@H](C(=O)N[C@@H]([C@H]2O[C@H](SC)[C@H](O)[C@@H](O)[C@H]2O)[C@@H](C)O)N(C)C1 [Lincomycin] + Cc1c(Cl)cccc1Nc1ccccc1C(=O)O [Tolfenamic]
S. aureus DSM 20231 [4]
  Bliss interaction score: -0.244

## CCC[C@@H]1C[C@@H](C(=O)N[C@@H]([C@H]2O[C@H](SC)[C@H](O)[C@@H](O)[C@H]2O)[C@@H](C)O)N(C)C1 [Lincomycin] + Cc1cccc(CN2CCN(C(c3ccccc3)c3ccc(Cl)cc3)CC2)c1 [Meclizine]
S. aureus DSM 20231 [4]
  Bliss interaction score: 0.278

## CCC[C@@H]1C[C@@H](C(=O)N[C@@H]([C@H]2O[C@H](SC)[C@H](O)[C@@H](O)[C@H]2O)[C@@H](C)O)N(C)C1 [Lincomycin] + O=C(O)Cc1cc(I)c(Oc2ccc(O)c(I)c2)c(I)c1 [Tiratricol]
S. aureus DSM 20231 [4]
  Bliss interaction score: 0.233

## COc1c(N2C[C@@H]3CCCN[C@@H]3C2)c(F)cc2c(=O)c(C(=O)O)cn(C3CC3)c12 [Moxifloxacin] + Cc1c(Cl)cccc1Nc1ccccc1C(=O)O [Tolfenamic]
S. aureus DSM 20231 [4]
  Bliss interaction score: -0.12

## O=C1CN(/N=C/c2ccc([N+](=O)[O-])o2)C(=O)N1 [Nitrofurantoin] + CCCSc1nc(N[C@@H]2C[C@H]2c2ccc(F)c(F)c2)c2nnn([C@@H]3C[C@H](OCCO)[C@@H](O)[C@H]3O)c2n1 [Ticagrelor]
S. aureus DSM 20231 [4]
  Bliss interaction score: -0.277

## O=C1CN(/N=C/c2ccc([N+](=O)[O-])o2)C(=O)N1 [Nitrofurantoin] + CCCc1nc2c(C)cc(-c3nc4ccccc4n3C)cc2n1Cc1ccc(-c2ccccc2C(=O)O)cc1 [Telmisartan]
S. aureus DSM 20231 [4]
  Bliss interaction score: -0.216

## C/C(=C\C(=O)OCCCCCCCCC(=O)O)C[C@@H]1OC[C@H](C[C@@H]2O[C@H]2[C@@H](C)[C@H](C)O)[C@@H](O)[C@H]1O [Pseudomonic acid] + CCCSc1nc(N[C@@H]2C[C@H]2c2ccc(F)c(F)c2)c2nnn([C@@H]3C[C@H](OCCO)[C@@H](O)[C@H]3O)c2n1 [Ticagrelor]
S. aureus DSM 20231 [4]
  Bliss interaction score: 0.241
